2 compounds from US7507860B2 (Pfizer Inc., priority 2004, dated 2009) can be followed below.

The test system of this assay is male Syrian hamsters, ear sebaceous glands. Kind of assay: Animal model for inhibition of sebum production (hamster ear, HPLC of sebum lipids). The conditions noted are these: 4 weeks; for % Reduction in CE (cholesterol ester) / % Reduction in WE (wax ester): 3-w/v % topical to ears twice daily, five days a week, difference from vehicle control; for Sum CE + WE: summation of % reduction in CE and WE, 3-w/v % topical. In kind it is in vivo, Syrian hamster. Here is the method: Luderschmidt et al describes an animal model for testing whether compounds are capable of modulating sebum secretion. Arch. Derm. Res. 258, 185-191 (1977). This model uses male Syrian hamsters, whose ears contain sebaceous glands. The products of Example 1 and 4 were screened in this model.
Testing for sebum inhibition was carried out in the following manner. Male Syrian hamsters aged 9 to 10 weeks were introduced into the laboratory environment and acclimated for 2 weeks prior to use in the study. Each group consisted of 5 animals and run in parallel with vehicle and positive controls. Prior to administration, 30 mg of each compound was dissolved in 1 mL of a solvent consisting of transcutanol, ethanol, and propylene glycol (20/60/20% v/v) to achieve a final concentration of 3-w/v %.
Animals were dosed topically twice daily, five days a week, for 4 weeks. Each dose consisted of 25 micro liters of vehicle control or drug. The dose was applied to the ventral surfaces of both the right and left ears. All animals were sacrificed approximately 18-24 hours after the final dose. The right ears were collected from each animal and used for sebum analysis.
The ears were prepped for HPLC analysis in the following manner. One 8 mm distal biopsy punch was taken, just above the anatomical “V” mark in the ear to normalize the sample area. The punch was pulled apart. The ventral biopsy surface (the area where the topical dose was directly applied to the sebaceous glands) was retained for testing and the dorsal surface of the biopsy punch was discarded.
Tissue samples were blown with N2 gas and stored at −80° C. under nitrogen until HPLC analysis. In addition to ear samples, an aliquot of each drug and vehicle (at least 250 ul) was also stored at −80° C. for inclusion in the HPLC analysis.
HPLC analysis was carried out on an extract of the tissue sample. Tissue samples were contacted with 3 ml of solvent (a 4:1 admixture of 2,2,4-trimethylpentane and isopropyl alcohol). The mixture was shaken for 15 minutes and stored overnight at room temperature, protected from light. The next morning 1 milliliter of water was added to the sample and shaken for 15 minutes. The sample was then centrifuged at approximately 1500 rpm for 15 minutes. Two ml of the organic phase (top layer) was transferred to a glass vial, dried at 37° C., under nitrogen, for approximately 1 hour, and then lyophilized for approximately 48 hours. The samples were then removed from the lyophilizer and each vial was reconstituted with 600 μl of solvent A (trimethylpentane/tetrahydrofuran (99:1). The samples were then recapped and vortexed for 5 minutes.
200 μl of each sample was then transferred to a pre-labeled 200 μl HPLC vial with 200 μL glass inserts. The HPLC vials were placed in the autosampler tray for the Agilent 1100 series HPLC unit. The Agilent 1100 HPLC system consisted of a thermostated autosampler, a quarternary pump, a column heater, and an A/D interface module. All components were controlled by Agilent ChemStation software. A Waters Spherisorb S3W 4.6×100 mm analytical column was maintained at 30° C. by the Agilent column heater unit. The HPLC autosampler was programmed to maintain the sample temperature at 20 C throughout the run.
10 uL of each sample was injected in triplicate into the column. Two solvents were used for the solvent gradient. Solvent A was an admixture of trimethylpentane and tetrahydrofuran (99:1). Solvent B was ethylacetate. The gradient utilized is described in the table below: […]
The Sedex 75 Evaporative Light Scattering Detector (ELSD) was operated at 45° C. with a gain of 5, and N2 pressure maintained at 3.1 bar. Analog signal obtained by the instrument was sent to the Agilent A/D interface module where it was converted to a digital output. The conversion was based on a 10000-mAU/volt set point and the data rate was set at 10 Hz (0.03 min). The resulting digital output was then feed into the Agilent ChemStation software for integration of the peak area. […]

For the compound `CCCC(Oc1ccc(C#N)c(C(F)(F)F)c1)C(=O)NCc1ccccc1` (stereo not drawn) [Example 4, 2-(4-Cyano-3-trifluoromethyl-phenoxy)-pentanoic acid benzylamide], the “% Reduction in CE (cholesterol ester)” value is given as 15%, the “% Reduction in WE (wax ester)” value was 31% and the “Sum CE + WE” value worked out at 46%.

In the case of `CC(C)CC(Oc1ccc(C#N)c(C(F)(F)F)c1)C(=O)NCc1ccccc1` (stereo not drawn) [Example 1, 2-(4-Cyano-3-trifluoromethyl-phenoxy)-4-methyl-pentanoic acid benzylamide], the “% Reduction in CE (cholesterol ester)” value worked out at 32%, the “% Reduction in WE (wax ester)” value was found to be 52% and the “Sum CE + WE” value amounted to 84%.
